The subject of data set [1] is advanced UC. The settings on record: vinflunine plus BSC, vs 1.5 months BSC alone, P = .001; cited from earlier work.
Data set [2] has as its system locally advanced or metastatic urothelial cancer. The experiment in a line: Phase 2 trial: tumor response. In kind it is in vivo, patients.
The test system of data set [3] is patients with locally advanced or metastatic urothelial cancer. The experiment in a line: Phase 2 trial: safety, adverse events. In kind it is in vivo.
The nature of data set [4]: Phase 2 trial: plasma pharmacokinetics. In kind it is in vivo, patients. As to conditions: for Tmax: first 2-hour intravenous infusion of 300 mg.
The test system of data set [5] is UC cell lines. As to conditions: cited from earlier work.
Data set [6] deals with solid tumors. The settings on record: cited from earlier work.
For data set [7], the system named is urothelial cancer. As to conditions: cited from earlier work.
Data set [8] relates to metastatic UC. The settings on record: cited from earlier work; for long-term progression-free survival (PFS): at 5 years; for complete response (CR) rate / median overall survival (mOS) / overall response rate: first-line, phase 3.
[9] abbreviates: post hoc subgroup: disease progression >6 months after most recent chemotherapy.
Where [10] appears, read: post hoc subgroup: disease progression ≤6 months after most recent chemotherapy.
The mark [11] stands for this setting: subgroup: patients who did not escalate.
[12] abbreviates: subgroup: patients who escalated to volasertib 350 mg.

Several values for one entry are separate records, joined by “and”; a condition that tells them apart may be missing. Equal values may be shown once.

Turning to `CC[C@]12C=CCN3CC[C@@]4(c5cc([C@@]6(C(=O)OC)C[C@@H]7C[C@@H](C(C)(F)F)CN(Cc8c6[nH]c6ccccc86)C7)c(OC)cc5N(C)[C@H]4[C@@](O)(C(=O)OC)[C@@H]1OC(C)=O)[C@@H]32` [Vinflunine, vinflunine], the “median PFS (mPFS)” value in data set [1] is on record as 3.0 months.

As to `CC[C@@H]1C(=O)N(C)c2cnc(Nc3ccc(C(=O)N[C@H]4CC[C@H](N5CCN(CC6CC6)CC5)CC4)cc3OC)nc2N1C(C)C` [Volasertib], in data set [2] (N = 50), the “Disease control: PR + SD” value is listed as 20 (40) No. of patients (%), the “OS rate at 3 mo” value is given as 77.2%, the “OS rate at 6 mo” value was found to be 55.5% and the “OS: Median [95% CI]” value was 8.5 [3.9-12.1] mo. In data set [2] (N = 50), the “PFS rate at 3 mo” value was 32%, the “PFS rate at 6 mo” value turned out to be 20%, the “PFS: Median [95% CI]” value is 6.1 [5.6-11.1] wk and the “patients with partial response” value was 14%. For the same molecule, in data set [2] (N = 50), the “patients with stable disease” value is 26%. Also, the “Response: SD” value in data set [2] (best overall response, N = 50) is reported as 13 (26) No. of patients (%). For the same molecule, the “patients who achieved a PR as best overall response” value in data set [2] (final analysis, N = 50) was 7 patients. Also, in data set [2] (final analysis, N = 50, all PRs), the overall response rate is 14%. Also, in data set [2] (in vivo), the “Duration of disease control, PR or SD: Median” value is listed as 27.0 wk and the “Duration of disease control, PR or SD: range” value is on record as 10.1-77.3 wk. Also, in data set [2] (of the first 20 patients who completed 4 treatment cycles), the “patients with PR at preplanned interim efficacy analysis” value is 2 patients. Further, in data set [2] (setting [9]), the mPFS amounted to 10.1 weeks and the response rate was 15%. For the same molecule, in data set [2] (setting [10]), the mPFS was 5.6 weeks and the response rate came to 14%. In data set [2] (responders), the “Duration of PR: range” value is 29.1-77.3 wk. In addition, in data set [2] (setting [11]), the “PR / response rate” value was 7.4% and 7%; the mOS is 5.8 months; the mPFS was 6.0 weeks and 6 weeks. Moreover, in data set [2] (setting [12]), the “PR / response rate” value is 21.7% and 22%; the mOS is reported as 10.6 months; the mPFS worked out at 11.1 weeks. Also, in data set [3] (human, in vivo), the “Adverse event leading to dose reduction: Diarrhea” value is 1 (2) No. of Patients (%), the “Adverse event leading to dose reduction: ECG: Prolonged QT” value is 1 (2) No. of Patients (%), the “Adverse event leading to dose reduction: Fatigue” value was 1 (2) No. of Patients (%) and the “Adverse event leading to dose reduction: Nausea” value is 1 (2) No. of Patients (%). In data set [3] (human, in vivo), the “Adverse event leading to dose reduction: Neutropenia” value is 2 (4) No. of Patients (%); the “Adverse event leading to dose reduction: Thrombocytopenia” value is on record as 3 (6) No. of Patients (%); the “febrile neutropenia (grade 3)” value was 1 episode; the “grade 3 and 4 anemia” value is recorded as 16%. Also, in data set [3] (human, in vivo), the “grade 3 and 4 neutropenia” value is listed as 28%; the “grade 3 and 4 thrombocytopenia” value was 20%; the “patients with dose reductions because of unacceptable toxicities in cycle 1” value stood at 4 patients; the “patients with dose reductions because of unacceptable toxicities, overall” value stood at 14%. In addition, the “treatment discontinuation because of AE” value in data set [3] (human, in vivo) amounted to 1 n. In data set [3] (in vivo), the “clinically relevant side effect such as arrhythmias or cardiac dysfunction” value is on record as “No clinically relevant side effect”, the cumulative toxicity entry is “No cumulative toxicity was observed”, the “grade 3 QTc prolongation” value was “One patient” and the safety profile entry was “acceptable safety profile”. The “deaths attributed to the study treatment” value in data set [3] (three patients died during the study because of disease progression) is reported as “none”. Further, the “effect of sex, age, weight, body mass index, or body surface area on PK profile” value in data set [4] (data not shown) is “not significantly affected”. Further, in data set [4] (human, plasma, iv, 300 mg), the total exposure AUC(0-inf) (usually total exposure, with the tail of the curve extrapolated) was found to be 5470 ng·h/mL; the Cmax (commonly the maximum level reached in the sampled fluid or tissue) is 253 ng/mL; the MRT (usually the average time that molecules of a dose stay in the body) is 136 h; the volume of distribution (Vd) (in general, a proportionality between amount in the body and measured concentration, not a real space) was 7470 L. Also, in data set [4] (human, plasma, iv, 300 mg), the clearance (in general, the rate of elimination divided by the concentration) was 914 mL/min and the half-life (commonly the time in which the quantity being followed falls by half) is 150 h. Further, the Tmax (in general, the time from dosing to the highest level) in data set [4] (human, plasma, iv, 300 mg, Median) is around 2 h. In data set [4] (human, plasma, iv, 300 mg, Range), the time of peak concentration (Tmax) fell in the range of 1.53 to 4.17 h. Moreover, the PK behavior entry in data set [4] (plasma concentration-time course) was “multiexponential PK behavior”. In addition, the “mitotic arrest and apoptosis in UC cells” value in data set [5] is “promote mitotic arrest and apoptosis”. In addition, in data set [5] (ref data on file, Boehringer Ingelheim), the “proliferation of multiple UC cell lines” value is given as “inhibited the proliferation”. Moreover, the maximum tolerated dose in data set [6] (dose-escalation clinical phase 1 trial) was 400 mg. For the same molecule, the “recommended dose for phase 2 trials” value in data set [6] (in vivo, iv) is listed as 300 mg. Further, the “tumor response in phase 1 trials” value in data set [6] (patients with heavily pretreated, metastatic UC) is reported as “partial responses”.

Turning to `Cc1ccc(Nc2nccc(N(C)c3ccc4c(C)n(C)nc4c3)n2)cc1S(N)(=O)=O` [pazopanib], the “antitumor activity in nonrandomized phase 2 trials” value in data set [7] is listed as “modest activity”.

gemcitabine plus cisplatin [GC]: in data set [8], the “long-term progression-free survival (PFS)” value is 9.8%, the “complete response (CR) rate” value is given as “approximately 12%”, the “median overall survival (mOS)” value is listed as 13.8 months and the overall response rate is given as 49%.

Turning to “methotrexate, vinblastine, doxorubicin, and cisplatin [MVAC]”, in data set [8], the “long-term progression-free survival (PFS)” value is given as 11.3%, the “complete response (CR) rate” value is given as “approximately 12%”, the “median overall survival (mOS)” value is given as 14.8 months and the overall response rate is given as 46%.

Source of the values: paper PMC4696031 (Cancer, 2013).
